{"source": "patent US20220119868A1", "about": "“PROFILING RNA-SMALL MOLECULE BINDING SITES WITH OLIGONUCLEOTIDES” (priority 2018, published 2022)", "key": {"[1]": {"system": "SL I site of HCV RNA in replicon cells", "experiment": "Oligonucleotide profiling of target engagement in cells by RT-qPCR", "type": "cell-based, Hepatitis C virus", "source_text": "Given these favorable results in vitro, the competitive cleaving approach was used to map cellular ligand binding sites. […] Previous approaches to map small molecule-RNA binding sites, such as Chemical Cross-Linking and Isolation by Pull-down (Chem-CLIP)59-61 and Small Molecule Nucleic Acid Profiling by Cleavage Applied to RNA (Ribo-SNAP)61, require the synthesis of derivatives of the lead molecules that allow them to cross-link or cleave and RNA target, respectively. […] Guan, L. and Disney, M. D. (2012). Recent advances in developing small molecules targeting RNA. ACS Chem. Biol. 7, 73-86. • 2. Thomas, J. R. and Hergenrother, P. J. (2008). Targeting RNA with small molecules. Chem. Rev. 108, 1171-1224. • 3. Blount, K. F. and Breaker, R. R. (2006). Riboswitches as antibacterial drug targets. Nat. Biotechnol. 24, 1558-1564. • 4. Tenson, T. and Mankin, A. (2006). Antibiotics and the ribosome. Mol. Microbiol. 59, 1664-1677. • 5. Schlunzen, F., Zarivach, R., Harms, J., Bashan, A., Tocilj, A., Albrecht, R., Yonath, A. and Franceschi, F. (2001). Structural basis for the interaction of antibiotics with the peptidyl transferase centre in eubacteria. Nature 413, 814-821. • 6. Hermann, T. (2016). Small molecules targeting viral rna. Wiley Interdiscip. Rev. RNA 7, 726-743. • 7. Ohgushi, M., Kuroki, S., Fukamachi, H., O'Reilly, L. A., Kuida, K., Strasser, A. and Yonehara, S. (2005). […]"}, "[2]": {"system": "WT SLI RNA (HCV SL I model)", "experiment": "Oligonucleotide profiling of target engagement in vitro (RNase H cleavage)", "type": "biochemical, Hepatitis C virus", "conditions": "antisense oligonucleotide and RNase H", "source_text": "Compound 8 binds the desired site in HCV RNA in vitro and in cells. To validate that the lead compounds bind to the desired site in the HCV RNA genome, an approach to profile binding site by using an antisense oligonucleotide was developed (FIG. 8A). Antisense oligonucleotides bind to complementary RNAs and recruit RNase H, which cleaves the RNA strand. Upon small molecule binding, the RNA's structure is stabilized, making it more difficult for the oligonucleotide to invade the structure. Thus, small molecule binding sites can be read out by inhibition of oligonucleotide cleavage. For in vitro studies, a small segment of the target site was transcribed that folds into the desired structure.\nApplication of an antisense agent (Table 4) and RNase H cleaves the RNA at the desired site. […] Additional control experiments were completed in which the RNA was mutated to remove 8's binding site and the corresponding complementary oligonucleotide to induce RNase H cleavage.\n(§1) Effect of compounds on HCV replication. […] Cytotoxicity assays. […] Oligonucleotide profiling of target engagement in vitro. […] Primers can be found in Table 4. […] Inhibition of kinases. […] . Figure S7C)."}, "CHK1": {"target": "CHK1 (Homo sapiens, UniProt O14757)", "sequence (O14757 whole entry)": "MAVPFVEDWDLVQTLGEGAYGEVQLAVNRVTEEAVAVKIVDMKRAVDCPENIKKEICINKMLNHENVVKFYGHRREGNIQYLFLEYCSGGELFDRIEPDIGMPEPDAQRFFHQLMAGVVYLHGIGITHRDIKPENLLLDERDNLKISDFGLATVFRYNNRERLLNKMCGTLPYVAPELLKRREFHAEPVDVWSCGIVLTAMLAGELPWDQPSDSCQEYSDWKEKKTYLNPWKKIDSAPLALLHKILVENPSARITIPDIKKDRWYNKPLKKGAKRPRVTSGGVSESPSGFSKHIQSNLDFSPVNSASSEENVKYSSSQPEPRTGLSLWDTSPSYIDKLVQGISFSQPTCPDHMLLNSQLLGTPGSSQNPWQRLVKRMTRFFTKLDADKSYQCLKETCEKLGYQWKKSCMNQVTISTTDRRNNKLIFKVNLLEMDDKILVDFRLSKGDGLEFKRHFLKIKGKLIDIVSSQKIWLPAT", "experiment": "In vitro inhibition of a panel of kinases", "type": "biochemical", "conditions": "20 μM", "source_text": "as §1"}}}
{"molecule": "O=C(Nc1ccc(C2=NCCN2)cc1)c1cc(C(=O)Nc2ccc(C3=NCCN3)cc2)cc(C(=O)Nc2ccc(C3=NCCN3)cc2)c1", "note": "[Compound 8]", "values": [{"measurement": "rescue of ASO-induced cleavage in cells", "setting": "[1]; Control ASO complementary to a downstream site", "value": "does not rescue cleavage"}, {"measurement": "inhibition of ASO-induced cleavage in cells", "setting": "[1]; antisense oligonucleotide overlapping the 8-binding site (SL I ASO)", "value": "inhibited cleavage"}, {"measurement": "inhibition of antisense/RNase H-mediated cleavage of SL I in vitro", "setting": "[2]", "value": "limited the ability of the antisense to mediate cleavage of the target"}, {"measurement": "inhibition of CHK1 in vitro", "setting": "CHK1", "value": "inhibited"}]}
